Assay results published in DBAASP.
≈ marks a conversion by molar mass, not a printed value.

Tests used:
Assay in all cases: ≥ marks a high value that may be exact or a test limit, other limits are often not marked, values filed in µg/mL are converted to µM
[1] = tested on: Bacillus subtilis KCTC 3068
Enterococcus faecalis VR = tested on: Enterococcus faecalis VR
Enterococcus faecalis = tested on: Enterococcus faecalis
Enterococcus faecium VR = tested on: Enterococcus faecium VR
Enterococcus faecium = tested on: Enterococcus faecium
[2] = tested on: Escherichia coli KCTC 1682
[3] = tested on: Pseudomonas aeruginosa KCTC 1637
[4] = tested on: Salmonella typhimurium KCTC 1926
[5] = tested on: Staphylococcus aureus KCTC 1621
Staphylococcus aureus MR = tested on: Staphylococcus aureus MR
[6] = tested on: Staphylococcus epidermidis KCTC 1917
[7] = tested on: Acinetobacter baumannii ATCC 19606
[8] = tested on: Bacillus subtilis ATCC 6051
Escherichia coli D31 = tested on: Escherichia coli D31
[9] = tested on: Pseudomonas aeruginosa PAO1
[10] = tested on: Staphylococcus aureus ATCC 27660
[11] = tested on: Candida albicans ATCC 24433
[12] = tested on: Escherichia coli ATCC 25922
[13] = tested on: Staphylococcus epidermidis ATCC 12228
[14] = tested on: Acinetobacter baumannii ATCC 15308
Citrobacter sp. = tested on: Citrobacter sp.
Enterobacter cloacae = tested on: Enterobacter cloacae
Klebsiella pneumoniae = tested on: Klebsiella pneumoniae
[15] = tested on: Pseudomonas aeruginosa ATCC 15442
[16] = tested on: Staphylococcus aureus ATCC 25923
Staphylococcus aureus = tested on: Staphylococcus aureus
Streptococcus pneumoniae = tested on: Streptococcus pneumoniae
Candida albicans C627 = tested on: Candida albicans C627
[17] = tested on: Enterococcus faecium mic80
[18] = tested on: Escherichia coli ESBL 63103
[19] = tested on: Pseudomonas aeruginosa 213
[20] = tested on: Pseudomonas aeruginosa H103
[21] = tested on: Pseudomonas aeruginosa LES400
[22] = tested on: Staphylococcus aureus C623

Structure (SMILES) | MIC [1] [µM] | MIC (Enterococcus faecalis VR) [µM] | MIC (Enterococcus faecalis) [µM] | MIC (Enterococcus faecium VR) [µM] | MIC (Enterococcus faecium) [µM] | MIC [2] [µM] | MIC [3] [µM] | MIC [4] [µM] | MIC [5] [µM] | MIC (Staphylococcus aureus MR) [µM] | MIC [6] [µM] | MIC [12] [µM] | MIC [14] [µM] | MIC (Citrobacter sp.) [µM] | MIC (Enterobacter cloacae) [µM] | MIC (Klebsiella pneumoniae) [µM] | MIC [15] [µM] | MIC [16] [µM] | MIC (Staphylococcus aureus) [µM] | MIC (Streptococcus pneumoniae) [µM] | further results
CC[C@H](C)[C@H](NC(=O)[C@H](CS)NC(=O)[C@H](Cc1cnc[nH]1)NC(=O)[C@H](C)NC(=O)[C@H](C)N)C(=O)N[C@@H](CCC(N)=O)C(=O)N[C@@H](CC(C)C)C(=O)NCC(=O)N[C@@H](CCCCN)C(=O)N[C@@H](CCCN=C(N)N)C(N)=O [AAHCIQLGKR] | 30 (≈ 32.9 µg/mL) | 30 (≈ 32.9 µg/mL) | 30 (≈ 32.9 µg/mL) | 30 (≈ 32.9 µg/mL) | 30 (≈ 32.9 µg/mL) | 30 (≈ 32.9 µg/mL) | 30 (≈ 32.9 µg/mL) | 30 (≈ 32.9 µg/mL) | 30 (≈ 32.9 µg/mL) | 30 (≈ 32.9 µg/mL) | 30 (≈ 32.9 µg/mL) | – | – | – | – | – | – | – | – | – | –
CC(C)C[C@H](NC(=O)[C@H](CS)NC(=O)[C@H](Cc1cnc[nH]1)NC(=O)[C@H](C)NC(=O)[C@H](C)N)C(=O)N[C@@H](C)C(=O)N[C@@H](CCCCN)C(=O)N[C@@H](CCCN=C(N)N)C(=O)N[C@@H](CCCCN)C(=O)N[C@@H](CCCCN)C(N)=O [AAHCLAKRKK] | 30 | 30 | 30 | 30 | 30 | 30 | 30 | 30 | 30 | 30 | 30 | – | – | – | – | – | – | – | – | – | –
CC(C)C[C@H](NC(=O)[C@H](C)N)C(=O)N[C@@H](Cc1c[nH]c2ccccc12)C(=O)N[C@@H](CCCN=C(N)N)C(=O)N[C@@H](CCCN=C(N)N)C(=O)N[C@@H](CC(C)C)C(=O)N[C@@H](CC(C)C)C(=O)N[C@@H](CCCN=C(N)N)C(=O)N[C@@H](CCCN=C(N)N)C(=O)N[C@@H](CC(C)C)C(=O)N[C@@H](CC(C)C)C(=O)N[C@@H](CCCN=C(N)N)C(=O)N[C@@H](CO)C(=O)N[C@@H](C)C(=O)N[C@@H](CCCN=C(N)N)C(=O)N[C@@H](CCCN=C(N)N)C(=O)N[C@@H](CC(C)C)C(=O)NCC(N)=O [ALWRRLLRRLLRSARRLG] | – | – | – | – | – | – | – | – | – | – | – | – | – | – | – | – | – | – | – | – | MIC [7]: 3.75 µM (≈ 8.48 µg/mL); MIC [8]: 1.88 µM (≈ 4.24 µg/mL); MIC (Escherichia coli D31): 1.88 µM (≈ 4.24 µg/mL); MIC [9]: 7.5 µM (≈ 17 µg/mL); MIC [10]: 3.75 µM (≈ 8.48 µg/mL)
CC(C)C[C@H](NC(=O)[C@H](Cc1ccccc1)NC(=O)[C@H](CC(C)C)NC(=O)[C@H](CS)NC(=O)[C@H](Cc1cnc[nH]1)NC(=O)[C@@H](NC(=O)[C@H](C)N)[C@@H](C)O)C(=O)N[C@@H](CCCCN)C(=O)N[C@@H](CCCCN)C(=O)N[C@@H](CCCN=C(N)N)C(N)=O [ATHCLFLKKR] | 7.5 | 30 | 30 | 30 | 30 | 15 | 15 | 15 | 15 | 15 | 15 | – | – | – | – | – | – | – | – | – | –
CC[C@H](C)[C@H](NC(=O)[C@H](CCSC)NC(=O)[C@H](C)NC(=O)[C@@H]1CCCN1C(=O)[C@@H]1CCCN1C(=O)[C@H](CCCN=C(N)N)NC(=O)[C@H](CCCCN)NC(=O)[C@@H](NC(=O)[C@H](CC(C)C)NC(=O)CNC(=O)CNC(=O)[C@H](CC(C)C)NC(=O)[C@@H](N)Cc1ccccc1)[C@@H](C)CC)C(=O)N[C@H]1CSSC[C@@H](C(=O)O)NC(=O)[C@H](CCCCN)NC(=O)[C@H](CCCCN)NC(=O)[C@H](CCCN=C(N)N)NC(=O)[C@H](C(C)C)NC(=O)[C@H](C)NC1=O [FLGGLIKRPPAMICAVRKKC] | – | – | – | – | – | – | – | – | – | – | – | > 114 | ≥ 114 | ≥ 114 | ≥ 114 | > 114 | ≥ 114 | > 114 | > 114 | ≥ 114 | –
CC[C@H](C)[C@H](NC(=O)[C@H](CC(C)C)NC(=O)CNC(=O)CNC(=O)[C@H](CC(C)C)NC(=O)[C@@H](N)Cc1ccccc1)C(=O)N[C@@H](CCCCN)C(=O)N[C@@H](Cc1c[nH]c2ccccc12)C(=O)N1CCC[C@H]1C(=O)N[C@@H](Cc1c[nH]c2ccccc12)C(=O)N[C@@H](Cc1c[nH]c2ccccc12)C(=O)N1CCC[C@H]1C(=O)N[C@@H](Cc1c[nH]c2ccccc12)C(=O)N[C@@H](CCCN=C(N)N)C(=O)N[C@@H](CCCN=C(N)N)C(N)=O [FLGGLIKWPWWPWRR] | – | – | – | – | – | – | – | – | – | – | – | 3.91 (≈ 7.81 µg/mL) | 31.3 (≈ 62.5 µg/mL) | ≥ 125 | ≥ 125 | > 125 | 15.6 (≈ 31.2 µg/mL) | 3.91 (≈ 7.81 µg/mL) | 3.91 (≈ 7.81 µg/mL) | 3.91 (≈ 7.81 µg/mL) | –
NCCCC[C@H](N)C(=O)N[C@@H](Cc1c[nH]c2ccccc12)C(=O)N[C@@H](Cc1c[nH]c2ccccc12)C(=O)N[C@@H](CCCN=C(N)N)C(=O)N[C@@H](Cc1c[nH]c2ccccc12)C(=O)N[C@@H](CCCN=C(N)N)C(=O)N[C@@H](CCCN=C(N)N)C(=O)N[C@@H](Cc1c[nH]c2ccccc12)C(=O)N[C@@H](Cc1c[nH]c2ccccc12)C(=O)O [KWWRWRRWW] | – | – | – | – | – | – | – | – | – | – | – | – | – | – | – | – | – | 5.18 (≈ 8 µg/mL) | – | – | MIC (Candida albicans C627): 5.18 µM (≈ 8 µg/mL); MIC [17]: 20.7 µM (≈ 32 µg/mL); MIC [18]: ≥ 82.8 µM; MIC [19]: ≥ 82.8 µM; MIC [20]: 20.7 µM (≈ 32 µg/mL); MIC [21]: ≥ 41.4 µM; MIC [22]: 5.18 µM (≈ 8 µg/mL)
CC(C)C[C@H](NC(=O)[C@@H](N)CC(C)C)C(=O)N1CCC[C@H]1C(=O)N[C@@H](Cc1c[nH]c2ccccc12)C(=O)N[C@@H](CCCCN)C(=O)N[C@@H](Cc1c[nH]c2ccccc12)C(=O)N1CCC[C@H]1C(=O)N[C@@H](Cc1c[nH]c2ccccc12)C(=O)N[C@@H](Cc1c[nH]c2ccccc12)C(=O)N[C@@H](CCCCN)C(=O)N[C@@H](Cc1c[nH]c2ccccc12)C(=O)N[C@@H](CCCN=C(N)N)C(=O)N[C@@H](CCCN=C(N)N)C(N)=O [LLPWKWPWWKWRR] | – | – | – | – | – | – | – | – | – | – | – | 16.1 (≈ 31.2 µg/mL) | ≥ 129 | ≥ 129 | ≥ 129 | > 129 | 16.1 (≈ 31.2 µg/mL) | 16.1 (≈ 31.2 µg/mL) | 16.1 (≈ 31.2 µg/mL) | 16.1 (≈ 31.2 µg/mL) | –

Second part, led by results:

MIC [1] [µM] | MIC (Enterococcus faecalis VR) [µM] | MIC (Enterococcus faecalis) [µM] | MIC (Enterococcus faecium VR) [µM] | MIC (Enterococcus faecium) [µM] | MIC [2] [µM] | MIC [3] [µM] | MIC [4] [µM] | MIC [5] [µM] | MIC (Staphylococcus aureus MR) [µM] | MIC [6] [µM] | MIC [12] [µM] | MIC [14] [µM] | MIC (Citrobacter sp.) [µM] | MIC (Enterobacter cloacae) [µM] | MIC (Klebsiella pneumoniae) [µM] | MIC [15] [µM] | MIC [16] [µM] | MIC (Staphylococcus aureus) [µM] | MIC (Streptococcus pneumoniae) [µM] | Structure (SMILES) | further results
– | – | – | – | – | – | – | – | – | – | – | > 100 | – | – | – | – | – | – | – | – | CC[C@H](C)[C@H](NC(=O)CNC(=O)[C@@H](NC(=O)[C@H](C)NC(=O)[C@@H](NC(=O)[C@H](CCCCN)NC(=O)[C@@H]1CCCN1C(=O)[C@@H](NC(=O)[C@H](CCSC)NC(=O)[C@H](CO)NC(=O)[C@H](Cc1ccccc1)NC(=O)[C@@H](N)Cc1ccccc1)[C@@H](C)CC)[C@@H](C)CC)[C@@H](C)O)C(=O)N[C@@H](C)C(=O)N[C@@H](CO)C(=O)N[C@@H](CC(C)C)C(=O)N[C@H](C(=O)N[C@@H](CCCCN)C(=O)N[C@@H](CC(=O)O)C(=O)N[C@@H](CC(C)C)C(N)=O)C(C)C [FFSMIPKIATGIASLVKDL] | MIC [11]: ≥ 100 µM; MIC [13]: > 100 µM
– | – | – | – | – | – | – | – | – | – | – | – | – | – | – | – | – | 91.4 (≈ 128 µg/mL) | – | – | CC[C@H](C)[C@H](NC(=O)[C@H](Cc1c[nH]c2ccccc12)NC(=O)[C@H](Cc1c[nH]c2ccccc12)NC(=O)[C@H](CCCN=C(N)N)NC(=O)[C@H](CCCCN)NC(=O)[C@H](Cc1c[nH]c2ccccc12)NC(=O)[C@H](CC(C)C)NC(=O)[C@@H](N)CCCN=C(N)N)C(=O)N[C@@H](CCCN=C(N)N)C(=O)O [RLWKRWWIR] | MIC (Candida albicans C627): 11.4 µM (≈ 16 µg/mL); MIC [17]: ≥ 45.7 µM; MIC [18]: ≥ 45.7 µM; MIC [19]: ≥ 91.4 µM; MIC [20]: ≥ 91.4 µM; MIC [21]: ≥ 91.4 µM; MIC [22]: ≥ 45.7 µM
